Laboratory results: PubChem BioAssay (NCI)
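GI50: concentration for 50% inhibition of growth. At the TGI there is no net growth.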

What was measured:
Assay in all cases: NCI-60 cell line screen, 384-well format
HCT-116 colon = system: HCT-116 colon
TK-10 renal = system: TK-10 renal
SK-OV-3 ovarian = system: SK-OV-3 ovarian
SR leukemia = system: SR leukemia
SF-295 CNS = system: SF-295 CNS
SNB-19 CNS = system: SNB-19 CNS
RXF 393 renal = system: RXF 393 renal
MDA-MB-435 melanoma = system: MDA-MB-435 melanoma
PC-3 prostate = system: PC-3 prostate
NCI-H522 lung = system: NCI-H522 lung
RPMI-8226 leukemia = system: RPMI-8226 leukemia
CAKI-1 renal = system: CAKI-1 renal
COLO 205 colon = system: COLO 205 colon
SW-620 colon = system: SW-620 colon
KM12 colon = system: KM12 colon
T-47D breast = system: T-47D breast
DU-145 prostate = system: DU-145 prostate
HOP-92 NSCLC = system: HOP-92 NSCLC
MOLT-4 leukemia = system: MOLT-4 leukemia
NCI-H322M lung = system: NCI-H322M lung
LOX IMVI melanoma = system: LOX IMVI melanoma
A549 NSCLC = system: A549 NSCLC
OVCAR-8 ovarian = system: OVCAR-8 ovarian
NCI-H460 NSCLC = system: NCI-H460 NSCLC
MCF7 breast = system: MCF7 breast
SK-MEL-28 melanoma = system: SK-MEL-28 melanoma
786-0 renal = system: 786-0 renal
MALME-3M melanoma = system: MALME-3M melanoma
OVCAR-4 ovarian = system: OVCAR-4 ovarian
MDA-MB-231 breast = system: MDA-MB-231 breast
U251 glioblastoma = system: U251 glioblastoma
HCC-2998 colon = system: HCC-2998 colon
UO-31 renal = system: UO-31 renal
MDA-MB-468 breast = system: MDA-MB-468 breast
NCI-H226 lung = system: NCI-H226 lung
EKVX NSCLC = system: EKVX NSCLC
HOP-62 NSCLC = system: HOP-62 NSCLC
HT29 colon = system: HT29 colon
HS 578T breast = system: HS 578T breast
OVCAR-5 ovarian = system: OVCAR-5 ovarian
NCI-H23 lung = system: NCI-H23 lung
UACC-257 melanoma = system: UACC-257 melanoma
SN12C renal = system: SN12C renal
NCI/ADR-RES ovarian = system: NCI/ADR-RES ovarian
A498 renal = system: A498 renal
ACHN renal = system: ACHN renal
HCT-15 colon = system: HCT-15 colon
BT-549 breast = system: BT-549 breast
SF-539 CNS = system: SF-539 CNS
IGROV1 ovarian = system: IGROV1 ovarian

Question: For `CNC(=O)c1ccccc1Sc1ccc2c(/C=C/c3ccccn3)n[nH]c2c1`, which GI50 (HCT-116 colon) is on record?
Answer: 4.39 µM

Question: And the TGI (HCT-116 colon)?
Answer: > 100 µM

Question: And the GI50 (TK-10 renal)?
Answer: > 100 µM

Question: What about the TGI (TK-10 renal) of the same compound?
Answer: > 100 µM

Question: What about the GI50 (SK-OV-3 ovarian) of the same compound?
Answer: 65.7 µM

Question: And the TGI (SK-OV-3 ovarian)?
Answer: > 100 µM

Question: And the GI50 (SR leukemia)?
Answer: 0.356 µM

Question: And the TGI (SR leukemia)?
Answer: 0.539 µM

Question: And the GI50 (SF-295 CNS)?
Answer: 3.59 µM

Question: What about the TGI (SF-295 CNS) of the same compound?
Answer: 69 µM

Question: What about the GI50 (SNB-19 CNS) of the same compound?
Answer: 66 µM

Question: And the TGI (SNB-19 CNS)?
Answer: > 100 µM

Question: And the GI50 (RXF 393 renal)?
Answer: 4.61 µM

Question: What about the TGI (RXF 393 renal) of the same compound?
Answer: 31.1 µM

Question: And the GI50 (MDA-MB-435 melanoma)?
Answer: > 100 µM

Question: What about the TGI (MDA-MB-435 melanoma) of the same compound?
Answer: > 100 µM

Question: And the GI50 (PC-3 prostate)?
Answer: 20.2 µM

Question: And the TGI (PC-3 prostate)?
Answer: > 100 µM

Question: What about the GI50 (NCI-H522 lung) of the same compound?
Answer: 1.35 µM

Question: What about the TGI (NCI-H522 lung) of the same compound?
Answer: 13.8 µM

Question: What about the GI50 (RPMI-8226 leukemia) of the same compound?
Answer: 3.77 µM

Question: What about the TGI (RPMI-8226 leukemia) of the same compound?
Answer: 13.9 µM

Question: And the GI50 (CAKI-1 renal)?
Answer: 22 µM

Question: What about the TGI (CAKI-1 renal) of the same compound?
Answer: > 100 µM

Question: And the GI50 (COLO 205 colon)?
Answer: 2.52 µM

Question: And the TGI (COLO 205 colon)?
Answer: > 100 µM

Question: What about the GI50 (SW-620 colon) of the same compound?
Answer: 46.7 µM

Question: What about the TGI (SW-620 colon) of the same compound?
Answer: > 100 µM

Question: What about the GI50 (KM12 colon) of the same compound?
Answer: 1.11 µM

Question: And the TGI (KM12 colon)?
Answer: > 100 µM

Question: What about the GI50 (T-47D breast) of the same compound?
Answer: 2.57 µM

Question: What about the TGI (T-47D breast) of the same compound?
Answer: 16.1 µM

Question: And the GI50 (DU-145 prostate)?
Answer: 30.1 µM

Question: What about the TGI (DU-145 prostate) of the same compound?
Answer: > 100 µM

Question: And the GI50 (HOP-92 NSCLC)?
Answer: 20.3 µM

Question: And the TGI (HOP-92 NSCLC)?
Answer: > 100 µM

Question: And the GI50 (MOLT-4 leukemia)?
Answer: 0.175 µM

Question: What about the TGI (MOLT-4 leukemia) of the same compound?
Answer: 0.328 µM

Question: What about the GI50 (NCI-H322M lung) of the same compound?
Answer: 20.7 µM

Question: What about the TGI (NCI-H322M lung) of the same compound?
Answer: 73.7 µM

Question: And the GI50 (LOX IMVI melanoma)?
Answer: 5.04 µM

Question: And the TGI (LOX IMVI melanoma)?
Answer: 41.7 µM

Question: What about the GI50 (A549 NSCLC) of the same compound?
Answer: 7.86 µM

Question: What about the TGI (A549 NSCLC) of the same compound?
Answer: > 100 µM

Question: And the GI50 (OVCAR-8 ovarian)?
Answer: 14.3 µM

Question: And the TGI (OVCAR-8 ovarian)?
Answer: 42.5 µM

Question: What about the GI50 (NCI-H460 NSCLC) of the same compound?
Answer: 2.59 µM

Question: What about the TGI (NCI-H460 NSCLC) of the same compound?
Answer: 45 µM

Question: And the GI50 (MCF7 breast)?
Answer: 16.2 µM

Question: What about the TGI (MCF7 breast) of the same compound?
Answer: > 100 µM

Question: And the GI50 (SK-MEL-28 melanoma)?
Answer: 22.4 µM

Question: And the TGI (SK-MEL-28 melanoma)?
Answer: > 100 µM

Question: What about the GI50 (786-0 renal) of the same compound?
Answer: 42.1 µM

Question: What about the TGI (786-0 renal) of the same compound?
Answer: > 100 µM

Question: What about the GI50 (MALME-3M melanoma) of the same compound?
Answer: 13.6 µM

Question: What about the TGI (MALME-3M melanoma) of the same compound?
Answer: 85.9 µM

Question: What about the GI50 (OVCAR-4 ovarian) of the same compound?
Answer: 19.3 µM

Question: And the TGI (OVCAR-4 ovarian)?
Answer: > 100 µM

Question: What about the GI50 (MDA-MB-231 breast) of the same compound?
Answer: 21.7 µM

Question: And the TGI (MDA-MB-231 breast)?
Answer: > 100 µM

Question: What about the GI50 (U251 glioblastoma) of the same compound?
Answer: 19.1 µM

Question: And the TGI (U251 glioblastoma)?
Answer: > 100 µM

Question: What about the GI50 (HCC-2998 colon) of the same compound?
Answer: > 100 µM

Question: And the TGI (HCC-2998 colon)?
Answer: > 100 µM

Question: What about the GI50 (UO-31 renal) of the same compound?
Answer: 32.8 µM

Question: What about the TGI (UO-31 renal) of the same compound?
Answer: > 100 µM

Question: And the GI50 (MDA-MB-468 breast)?
Answer: 1.92 µM

Question: And the TGI (MDA-MB-468 breast)?
Answer: 5.88 µM

Question: What about the GI50 (NCI-H226 lung) of the same compound?
Answer: 1.06 µM

Question: And the TGI (NCI-H226 lung)?
Answer: 7.68 µM

Question: What about the GI50 (EKVX NSCLC) of the same compound?
Answer: 29.9 µM

Question: What about the TGI (EKVX NSCLC) of the same compound?
Answer: > 100 µM

Question: And the GI50 (HOP-62 NSCLC)?
Answer: 4.4 µM

Question: What about the TGI (HOP-62 NSCLC) of the same compound?
Answer: > 100 µM

Question: And the GI50 (HT29 colon)?
Answer: 46.5 µM

Question: And the TGI (HT29 colon)?
Answer: > 100 µM

Question: And the GI50 (HS 578T breast)?
Answer: 2.17 µM

Question: What about the TGI (HS 578T breast) of the same compound?
Answer: 35.7 µM

Question: And the GI50 (OVCAR-5 ovarian)?
Answer: > 100 µM

Question: What about the TGI (OVCAR-5 ovarian) of the same compound?
Answer: > 100 µM

Question: And the GI50 (NCI-H23 lung)?
Answer: 15.5 µM

Question: And the TGI (NCI-H23 lung)?
Answer: > 100 µM

Question: And the GI50 (UACC-257 melanoma)?
Answer: 26.7 µM

Question: And the TGI (UACC-257 melanoma)?
Answer: 92.2 µM

Question: What about the GI50 (SN12C renal) of the same compound?
Answer: 4.88 µM

Question: And the TGI (SN12C renal)?
Answer: 79.7 µM

Question: What about the GI50 (NCI/ADR-RES ovarian) of the same compound?
Answer: 5.09 µM

Question: What about the TGI (NCI/ADR-RES ovarian) of the same compound?
Answer: 18.4 µM

Question: What about the GI50 (A498 renal) of the same compound?
Answer: 35.4 µM

Question: And the TGI (A498 renal)?
Answer: > 100 µM

Question: What about the GI50 (ACHN renal) of the same compound?
Answer: 13.8 µM

Question: And the TGI (ACHN renal)?
Answer: > 100 µM

Question: What about the GI50 (HCT-15 colon) of the same compound?
Answer: 4.68 µM

Question: What about the TGI (HCT-15 colon) of the same compound?
Answer: > 100 µM

Question: What about the GI50 (BT-549 breast) of the same compound?
Answer: 1.22 µM

Question: What about the TGI (BT-549 breast) of the same compound?
Answer: 6.94 µM

Question: And the GI50 (SF-539 CNS)?
Answer: 1.01 µM

Question: What about the TGI (SF-539 CNS) of the same compound?
Answer: 7.16 µM

Question: And the GI50 (IGROV1 ovarian)?
Answer: 36.1 µM

Question: And the TGI (IGROV1 ovarian)?
Answer: > 100 µM
